Tests used:
paw edema = test: Anti-inflammatory activity (% inhibition in paw edema); assay type: in vivo; settings: dose 40 mg/kg p.o.; albino rats
Text: (§1) Solvents were dried and distilled before use. Dimethyltin(IV) dichloride di-n-butyltin(IV) dichloride, diphenyltin(IV) dichloride, trimethyltin(IV) chloride, tri-i-propyltin(IV) chloride, tri-n-butyltin(IV) chloride, triphenyltin(IV) chloride (E. Merck), di-n-octyltin(IV) oxide (Aldrich), and disodium salt of 5′-guanosine monophosphate (Na2(5′-GMP) (Sigma) were used as received. The elemental analysis, namely, melting points, carbon, hydrogen, nitrogen, and tin of the synthesized compounds was determined on the same instruments as reported earlier. Infrared and far-infrared spectra were recorded on a Perkin-Elmer 1600 series FT IR spectrophotometer in the range 4000–400 cm^−1 from KBr discs and 600–200 cm^−1 from CsI discs. ^1H and ^13C spectra were recorded on a Bruker DRX 300 (300 MHz FT NMR) spectrometer at the Central Drug Research Institute, Lucknow, India, using CD3OD as solvent and TMS as the internal standard. ^119Sn NMR spectra were recorded on a Bruker DRX 500 (500 MHz FT NMR) spectrometer at the Institute Instrumentation Centre, IIT, Roorkee, India, using DMSO-d6/CD3OD as solvent and TMS as the internal standard. ^119Sn Mössbauer spectra were recorded on Mössbauer spectrometer model MS-900 according to the procedure reported previously at the Department of Chemistry and Physics, University of The District of Columbia, Washington, DC, USA [21, 22]. Toxicity (LD50: average lethal dose at 50% survival) and anti-inflammatory activity of the studied derivatives were determined according to the procedures reported earlier.

albino rats = assay type: in vivo; settings: p.o.
Text: as §1

[1] = Solubility in organic solvents (observation); assay type: physicochemical; settings: for Solubility in DMSO-d6/CDCl3/CD3OD: NMR solvents DMSO-d6/CDCl3/CD3OD
Text: All of the synthesized compounds are obtained as white or cream solid in 65–81% yield and stable towards air and moisture. They are insoluble in common organic solvents but sparingly soluble in DMSO. They decomposed at high temperature instead of melting, which indicates their polymeric nature. […] In the entire studied derivatives one molecule of water is also involved.
The chemical shifts of various magnetically nonequivalent carbons of (5′-GMP)^2− have been assigned in the studied derivatives. The C-5′ resonances in organotin(IV) derivatives of (5′-GMP)^2− are shifted towards downfield upon complexation as compared with that of ligand, which indicate the involvement of phosphate group (PO3)^2− in bonding with tin. While all other carbon shifts remains almost unchanged, the ^13C chemical shifts of alkyl and phenyl groups attached to tin are also observed in the expected regions which are consistent with previously reported values. The characteristic resonances in the ^119Sn NMR spectra of some of the studied derivatives, recorded in dimethylsulfoxide-d 6, are also presented in Table 2. […] The ^119Sn chemical shifts in iso-Pr3Sn(IV), Ph2Sn(IV), and Ph3Sn(IV) derivatives of (5′-GMP)^2− are observed at δ −256, −225, and −226 ppm, which are characteristic of the five-coordinated organotin(IV) derivatives.

| Compound | Anti-inflammatory activity % inhibition (paw edema) (paw edema) [%] | Toxicity LD50 (albino rats) [mg/kg] | Solubility in DMSO-d6 [1] | Solubility in DMSO-d6/CDCl3/CD3OD [1] |
| --- | --- | --- | --- | --- |
| [n-Bu2Sn(5′-GMP)·H2O]n | 16.32 | >400 | poor solubility | extremely low solubility |
| [Me2Sn(5′-GMP)·H2O]n | 18.12 | >400 | poor solubility | – |
| [Ph2Sn(5′-GMP)·H2O]n | 19.22 | >400 | – | – |
| [(Me3Sn)2(5′-GMP)·H2O]n | – | – | poor solubility | extremely low solubility |
| [(i-Pr3Sn)2(5′-GMP)·H2O]n | – | >400 | – | – |
| [(n-Bu3Sn)2(5′-GMP)·H2O]n | 17.34 | >400 | poor solubility | – |
| CCCCC1C(=O)N(c2ccccc2)N(c2ccccc2)C1=O [Phenyl butazone, reference compound] | 34.56 | – | – | – |
| [(Ph3Sn)2(5′-GMP)·H2O]n | 20.63 | >400 | – | – |

Source: paper PMC3767334, “Interaction of 5′-Guanosine Monophosphate with Organotin(IV) Moieties: Synthesis, Structural Characterization, and Anti-Inflammatory Activity” (ISRN Organic Chemistry, 2012)
